Assay results taken from PMC11252418, “Specific glycine-dependent enzyme motion determines the potency of conformation selective inhibitors of threonyl-tRNA synthetase” (Communications Biology, 2024).
Values joined by “and” are separate entries in the source; they are usually repeats but may differ in a detail not shown here. Equal entries are not always repeated. Where two headings read alike, the source gives them in different places.

Key:
[1] = molecular target: T1, EcThrRS_L489M (Escherichia coli, UniProt P0A8M3, L489M); assay: Thermal shift assay (TSA); format: binding
T1 construct: The E. coli ThrRS (residues 242-642, Supplementary Note 1) wild type; 6xHis (C); made in house; host or cells: E. coli BL21 (DE3)
T1 sequence (P0A8M3 242-642 L489M): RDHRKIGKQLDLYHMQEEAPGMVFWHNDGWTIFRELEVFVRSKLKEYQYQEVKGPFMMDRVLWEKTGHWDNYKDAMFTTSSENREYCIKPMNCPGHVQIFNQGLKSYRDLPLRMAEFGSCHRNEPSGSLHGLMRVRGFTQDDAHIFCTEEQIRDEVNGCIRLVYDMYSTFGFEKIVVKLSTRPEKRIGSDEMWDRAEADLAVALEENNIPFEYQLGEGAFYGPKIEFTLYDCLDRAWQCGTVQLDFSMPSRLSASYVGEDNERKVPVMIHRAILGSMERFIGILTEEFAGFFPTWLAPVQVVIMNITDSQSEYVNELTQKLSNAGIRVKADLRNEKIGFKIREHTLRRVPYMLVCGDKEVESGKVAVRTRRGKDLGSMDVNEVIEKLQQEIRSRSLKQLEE
Method: (§1) The EcThrRS_WT and L489M/G463S/G463S_Q484A/G463A/A316N mutant proteins, ObaO_WT and ObaO_S464G mutant proteins were prepared at 2 μM in buffer containing 25 mM Tris-HCl pH 7.5, 200 mM NaCl, and 20 μM OB (GlpBio, US) or BN (GlpBio, US) or ddH2O in equal volumes since the compounds were diluted with ddH2O to 1 mM as stocks. […] SYPRO orange dye (Sigma, USA) was diluted in assay buffer containing 25 mM Tris-HCl pH 7.5 and 200 mM NaCl to a 40× concentration, and was added to the mixture to a final 4× concentration. Aliquots (20 μL) were added to a 96-well PCR plate. After complete mixing, the final solutions were heated from 25 to 95 °C at a rate of 0.015 °C/s, and fluorescence signals were monitored by QuantStudio 3 (Applied Biosystems by Thermo Fisher Scientific, USA). The melting temperature (Tm) was calculated through a previously established method[56],[57].

[2] = molecular target: T2, EcThrRS_G463S (Escherichia coli, UniProt P0A8M3, G463S); assay: Thermal shift assay (TSA); format: binding
T2 construct: The E. coli ThrRS (residues 242-642, Supplementary Note 1) wild type; 6xHis (C); made in house; host or cells: E. coli BL21 (DE3)
T2 sequence (P0A8M3 242-642 G463S): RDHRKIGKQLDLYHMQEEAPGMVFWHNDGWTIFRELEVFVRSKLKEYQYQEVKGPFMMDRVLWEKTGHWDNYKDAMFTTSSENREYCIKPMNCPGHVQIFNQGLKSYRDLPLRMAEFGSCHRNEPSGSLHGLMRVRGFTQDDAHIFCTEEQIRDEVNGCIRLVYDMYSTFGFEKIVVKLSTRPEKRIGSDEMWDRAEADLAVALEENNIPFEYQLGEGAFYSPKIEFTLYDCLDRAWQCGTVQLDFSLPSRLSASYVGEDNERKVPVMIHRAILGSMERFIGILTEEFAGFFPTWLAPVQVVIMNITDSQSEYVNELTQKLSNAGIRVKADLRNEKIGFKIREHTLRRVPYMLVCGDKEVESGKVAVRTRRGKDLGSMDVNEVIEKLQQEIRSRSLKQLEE
Method: as §1

[3] = molecular target: T3, EcThrRS_A316N (Escherichia coli, UniProt P0A8M3, A316N); assay: Thermal shift assay (TSA); format: binding
T3 construct: The E. coli ThrRS (residues 242-642, Supplementary Note 1) wild type; 6xHis (C); made in house; host or cells: E. coli BL21 (DE3)
T3 sequence (P0A8M3 242-642 A316N): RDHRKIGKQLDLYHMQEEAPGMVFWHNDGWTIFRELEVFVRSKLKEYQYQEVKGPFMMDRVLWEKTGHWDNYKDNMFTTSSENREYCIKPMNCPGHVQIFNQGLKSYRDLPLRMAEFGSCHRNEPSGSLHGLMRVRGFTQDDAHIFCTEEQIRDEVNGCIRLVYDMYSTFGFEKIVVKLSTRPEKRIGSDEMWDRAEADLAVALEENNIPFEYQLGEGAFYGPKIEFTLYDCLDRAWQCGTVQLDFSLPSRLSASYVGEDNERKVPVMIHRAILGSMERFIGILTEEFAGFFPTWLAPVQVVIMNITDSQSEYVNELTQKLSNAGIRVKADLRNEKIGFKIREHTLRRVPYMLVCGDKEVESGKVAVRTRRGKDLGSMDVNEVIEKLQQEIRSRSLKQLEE
Method: as §1

[4] = molecular target: T4, EcThrRS_G463A (Escherichia coli, UniProt P0A8M3, G463A); assay: Thermal shift assay (TSA); format: binding
T4 construct: The E. coli ThrRS (residues 242-642, Supplementary Note 1) wild type; 6xHis (C); made in house; host or cells: E. coli BL21 (DE3)
T4 sequence (P0A8M3 242-642 G463A): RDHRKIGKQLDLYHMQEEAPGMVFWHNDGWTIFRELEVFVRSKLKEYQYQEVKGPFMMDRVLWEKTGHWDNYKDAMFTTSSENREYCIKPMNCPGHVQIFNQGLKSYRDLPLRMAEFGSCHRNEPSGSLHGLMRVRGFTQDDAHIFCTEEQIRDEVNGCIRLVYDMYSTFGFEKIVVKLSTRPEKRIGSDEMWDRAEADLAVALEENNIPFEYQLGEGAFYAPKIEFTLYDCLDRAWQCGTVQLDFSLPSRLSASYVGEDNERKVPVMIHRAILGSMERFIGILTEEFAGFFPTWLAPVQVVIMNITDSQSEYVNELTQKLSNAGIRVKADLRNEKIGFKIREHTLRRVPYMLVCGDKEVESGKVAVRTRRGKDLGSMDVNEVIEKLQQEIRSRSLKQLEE
Method: as §1

[5] = molecular target: T5, EcThrRS_G463S_Q484A (Escherichia coli, UniProt P0A8M3, G463S/Q484A); assay: Thermal shift assay (TSA); format: binding
T5 construct: The E. coli ThrRS (residues 242-642, Supplementary Note 1) wild type; 6xHis (C); made in house; host or cells: E. coli BL21 (DE3)
T5 sequence (P0A8M3 242-642 G463S/Q484A): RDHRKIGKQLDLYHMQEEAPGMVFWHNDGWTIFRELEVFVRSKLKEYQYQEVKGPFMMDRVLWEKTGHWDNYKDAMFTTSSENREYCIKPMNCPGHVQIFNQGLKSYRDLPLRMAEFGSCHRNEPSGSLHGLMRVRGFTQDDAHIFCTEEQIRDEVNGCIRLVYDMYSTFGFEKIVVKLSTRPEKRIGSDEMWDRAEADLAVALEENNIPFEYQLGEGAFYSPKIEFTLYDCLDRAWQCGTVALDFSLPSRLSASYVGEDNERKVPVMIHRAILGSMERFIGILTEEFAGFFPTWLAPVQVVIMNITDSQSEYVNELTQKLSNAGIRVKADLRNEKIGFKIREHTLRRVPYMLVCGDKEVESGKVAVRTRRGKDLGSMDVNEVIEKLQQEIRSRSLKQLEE
Method: as §1

[6] = molecular target: T1, EcThrRS_L489M; assay: ATP hydrolysis assay; format: biochemical; details: for ATP hydrolysis activity, inhibitory curve data point: OB, replicates, sheet Fig.2b
Method: (§2) 200 nM EcThrRS wide type and mutants, ObaO and ObaO_S464G mutant were incubated with serially diluted OB (0 to 10 μM for EcThrRS, 0 to 40 μM for ObaO) in a buffer containing 25 mM HEPES pH 7.5, 50 mM NaCl, 40 mM MgCl2, 30 mM KCl, 0.01 mg/mL bovine serum albumin (BSA), and 0.004% Tween-20 at 37 °C for 4 h and then mixed 1:1 with a substrate mixture containing 4 μM ATP, 40 μM L-threonine, 25 mM HEPES pH 7.5, 50 mM NaCl, 40 mM MgCl2, 30 mM KCl, 0.01 mg/mL BSA, and 0.004% Tween-20. The ATP hydrolysis reaction was performed at 37 °C for 4 h.
(§3) After incubation, the detection solution from the Kinase-Glo® luminescent kit (Promega, USA) was added to the reaction system at a 1:1 ratio, and the mixture was gently shaken for 10 min. The chemiluminescence signal was measured using a microplate reader (Tecan, USA). All experiments were performed in four replicates. The data were processed using GraphPad Prism 8 software.

[7] = molecular target: T2, EcThrRS_G463S; assay: ATP hydrolysis assay; format: biochemical; details: for ATP hydrolysis activity, inhibitory curve data point: OB, replicates, sheet Fig.2b
Method: as §2, §3

[8] = molecular target: T3, EcThrRS_A316N; assay: ATP hydrolysis assay; format: biochemical; details: for ATP hydrolysis activity, inhibitory curve data point: OB, replicates, sheet Fig.S4b
Method: as §2, §3

[9] = 2 μM protein, 20 μM compound, mean n = 4, read-out: ΔTm (increase of Tm)

## O=C(N[C@@H]1C(=O)O[C@@H]1Cc1ccc([N+](=O)[O-])cc1)c1cccc(O)c1O [OB, Obafluorin]
[1]; [9]
  ΔTm at 20 µM: 22.6 °C
[1]; source data sheet Fig.2a, ThrRS_L489M, read-out: ΔTm, single replicates
  ΔTm at 20 µM: 23 °C
[2]; [9]
  ΔTm at 20 µM: 13.3 °C
[2]; source data sheet Fig.2a, ThrRS_G463S, read-out: ΔTm, single replicates
  ΔTm at 20 µM: 16.1 °C
[3]; [9]
  ΔTm at 20 µM: 33.4 °C
[3]; source data sheet Fig.S4a, ThrRS_A316N, read-out: ΔTm, single replicates
  ΔTm at 20 µM: 33.4 °C
[4]; [9]
  ΔTm at 20 µM: 19.5 °C
[4]; EcThrRS_G463A vs WT, same compound
  ΔTm less than that of EcThrRS_WT: 14.0 °C
[4]; difference OB vs 36j on EcThrRS_G463A
  ΔTm less than that increased by 36j: 1.3 °C
[4]; source data sheet Fig.5a, ThrRS_G463A, read-out: ΔTm, single replicates
  ΔTm at 20 µM: 20.4 °C
[5]; [9]
  ΔTm at 20 µM: 17.2 °C
[5]; difference OB vs 36j on EcThrRS_G463S_Q484A
  ΔTm less than the effect of 36j: 10 °C
[5]; source data sheet Fig.3c, ThrRS_G463S_Q484A, read-out: ΔTm, single replicates
  ΔTm at 20 µM: 17.5 °C
[6]; ATP hydrolysis activity
  IC50: 215 nM
[6]; Log10 Conc. 3.097, L489M
  ATP hydrolysis activity, inhibitory curve data point: 14.911 and 30.795 and 20.792 and 22.166
[6]; Log10 Conc. 3.398, L489M
  ATP hydrolysis activity, inhibitory curve data point: 25.404 and -0.594 and -13.763 and 3.682
[6]; Log10 Conc. 3.699, L489M
  ATP hydrolysis activity, inhibitory curve data point: 26.774 and 18.620 and -26.210 and 6.396
[6]; Log10 Conc. 4.000, L489M
  ATP hydrolysis activity, inhibitory curve data point: 5.096 and 5.493 and 1.083 and 8.709
[7]; 5 μM OB
  inhibition at 5 µM: ~10%
[7]; ATP hydrolysis activity
  inhibitory activity: poor activity
[7]; Log10 Conc. 1.279, G463S
  ATP hydrolysis activity, inhibitory curve data point: 106.793 and 98.818 and 94.863 and 99.954
[7]; Log10 Conc. 1.597, G463S
  ATP hydrolysis activity, inhibitory curve data point: 100.752 and 93.821 and 90.230 and 89.239
[7]; Log10 Conc. 1.892, G463S
  ATP hydrolysis activity, inhibitory curve data point: 119.110 and 112.303 and 110.507 and 107.832
[7]; Log10 Conc. 2.193, G463S
  ATP hydrolysis activity, inhibitory curve data point: 113.765 and 106.055 and 104.056 and 103.914
[7]; Log10 Conc. 2.495, G463S
  ATP hydrolysis activity, inhibitory curve data point: 113.955 and 101.766 and 100.028 and 98.945
[7]; Log10 Conc. 2.796, G463S
  ATP hydrolysis activity, inhibitory curve data point: 114.391 and 100.345 and 101.496 and 101.074
[7]; Log10 Conc. 3.097, G463S
  ATP hydrolysis activity, inhibitory curve data point: 109.765 and 91.814 and 95.122 and 94.032
[7]; Log10 Conc. 3.398, G463S
  ATP hydrolysis activity, inhibitory curve data point: 99.125 and 85.681 and 84.901 and 83.398
[7]; Log10 Conc. 3.699, G463S
  ATP hydrolysis activity, inhibitory curve data point: 98.676 and 85.750 and 87.909 and 87.887
[7]; Log10 Conc. 4.000, G463S
  ATP hydrolysis activity, inhibitory curve data point: 100.800 and 85.432 and 86.068 and 84.275
[8]; ATP hydrolysis activity
  IC50: 848 nM
[8]; Log10 Conc. 0.690, A316N
  ATP hydrolysis activity, inhibitory curve data point: 85.962 and 86.560 and 99.695 and 84.767
[8]; Log10 Conc. 0.991, A316N
  ATP hydrolysis activity, inhibitory curve data point: 88.637 and 98.163 and 100.359 and 100.821
[8]; Log10 Conc. 1.290, A316N
  ATP hydrolysis activity, inhibitory curve data point: 94.677 and 95.220 and 104.669 and 107.135
[8]; Log10 Conc. 1.591, A316N
  ATP hydrolysis activity, inhibitory curve data point: 79.114 and 84.617 and 87.973 and 87.592
